System: Musca domestica
Details: female Musca domestica imagoes of a sensitive strain; oral, 1 μL of 50 ppm liquid composition in 5% granulated sugar solution (0.05 μg clothianidin); after 24 hours
Procedure: Insecticidal test by oral administration to Musca domestica
A clothianidin solution in alcohol was diluted with 5% granulated sugar solution to prepare a 50 ppm liquid composition of clothianidin.
Female Musca domestica imagoes (ten flies) of a sensitive strain kept without water for 3˜4 hours were anesthetized and lightly fixed to a pressure sensitive adhesive sheet which was cut into strips. After the test insects came out from the anesthetic, 1 μL of the liquid composition (containing 0.05 μg of clothianidin) was released from an injection needle attached to a micro dropper so that the test insects inhaled the composition.

## CN/C(=N\[N+](=O)[O-])NCc1cnc(Cl)s1 [clothianidin, (E)-1-(2-chloro-1,3-thiazol-5-ylmethyl)-3-methyl-2-nitroguanidine]
  insecticidal effect (flies dead): all flies were dead

Source: patent US20010046986A1, “Method for controlling flies” (priority 2000, published 2001)
